Experimental data as given in patent US11666600B2, “Methods for culturing and/or differentiating hematopoietic stem cells into progenitors and uses thereof” (HEMA-QUEBEC, priority 2015, dated 2023).

Legend:
[1] = system: Human bone marrow CD34+ cells; test: Expansion of CD34+/CD41+ megakaryocytic progenitors from bone marrow CD34+ cells; format: cell-based; details: 39° C. + PIC 35 nM; 14 days; SFEM + BS1; FIG. 6
Procedure: Human bone marrow and G-CSF-mobilized peripheral blood CD34+ cells were purchased from AllCells.
Human CD34+-enriched cells (purity 90%) were seeded in 24-well plates at 100 000 cells/mL in expansion medium consisting of either (1) StemSpan™ ACF (ACF; […] Technologies) supplemented with the OMPC cytokine cocktail (Robert et al., 2011), or (2) StemSpan™ SFEM ([…] Technologies) supplemented with the BS1 megakaryocyte expansion and differentiation cocktail (Cortin et al., 2005). OMPC consists of 35 ng/mL thrombopoietin (TPO; Feldan Therapeutics), 10 ng/mL stem cell factor (SCF; Peprotech), and 11 ng/mL human FMS-like tyrosine kinase 3 ligand (FLT3, Peprotech). […]
(§1) Cellular counts and viability were determined by adding Solution 18 (Acridine Orange and DAPI solution, ChemomMetec) and using NucleoCounter™ NC-250 for detection (ChemomMetec).
For cells expanded in conditions favoring differentiation towards the MK lineage, surface markers were detected using the following antibodies: CD34-FITC, CD41a-APC and CD42b-PE. […] All samples were analyzed on an Accuri™ C6 flow cytometer (BD Biosciences), and raw data were analyzed with FCS Express 5 Flow Research Edition software from at least 15 000 viable cell events acquired for each sample. […]
(§2) Cellular counts and viability were determined as described in Example 6.5.

[2] = system: Human CB CD34+-enriched cells; test: Culture of CB CD34+-enriched cells in erythroid differentiation medium; format: cell-based; details: 14 days
Procedure: Human cord blood (CB) was collected after obtaining written informed consent from donors, following our institutional Research Ethics Committee guidelines. Mononuclear cells (MNCs) were first separated over a Ficoll-Hypaque™ density gradient (GE Healthcare), then cryopreserved at −180° C. in Cryostor CS10™ medium ([…] Technologies). Thawed MNCs from six to eight CB were pooled before CD34 isolation. CB CD34+ cells were enriched by positive selection using the EasySep™ CD34 enrichment kit, according to the manufacturer's instructions ([…] Technologies).
Human CB CD34+-enriched cells (purity≥90%) were seeded in 24-well plates at 100 000 cells/mL in expansion medium consisting of Eave's basal medium (Iscove's modified Dulbecco's medium (IMDM), 20% BIT ([…] bovine serum albumin, 10 μg/mL bovine pancreatic insulin, 200 μg/mL human transferrin; […] Technologies), 0.1 mg/mL low-density lipoprotein ([…] Technologies), 50 μM 2-mercaptoethanol) supplemented with 20 ng/mL SCF (Peprotech) and 2 U/mL erythropoietin (EPO; Feldan Therapeutics). Cultures were maintained in a humidified atmosphere with 5% CO2 at 37° C. or 39° C., as indicated in the Examples. Cells were diluted at 300 000 cells/mL with fresh medium every 3 to 4 days.
as §1
For cells expanded in conditions favoring differentiation towards the erythroid lineage, surface markers were detected using the following antibodies: CD34-FITC, CD71-APC and CD235-PE. All antibodies were purchased from BD Biosciences, except for CD34-FITC which was purchased from Immunotech. 7AAD was used as a viability dye. All samples were analyzed on an Accuri™ C6 flow cytometer (BD Biosciences), and raw data were analyzed with FCS Express 5 Flow Research Edition software from at least 15 000 viable cell events acquired for each sample.
as §2

Cl.Cn1nnc(-c2ccc3c(c2)[nH]c2nc(Cc4ccccc4)nc(N[C@H]4CC[C@H](N)CC4)c23)n1 [PIC, (1r,4r)-N1-(2-benzyl-7-(2-methyl-2H-tetrazol-5-yl)-9H-pyrimido[4,5-b]indol-4-yl)cyclohexane-1,4-diamine hydrochloride]
combined use of mild hyperthermia and PIC on expansion of CD34+/CD41+ cells [1]: synergistic effect
mild hyperthermia and PIC on expansion of CB CD34+ cells ([2]; 39° C. + PIC 35 nM, erythroid differentiation medium, FIG. 12): additive effect
mild hyperthermia and PIC on expansion of CB CD34+/CD71+ cells (erythroid progenitors) ([2]; 39° C. + PIC 35 nM, erythroid differentiation medium, FIG. 13): additive effect
effect of addition of PIC on expansion of CD71+ erythroid precursors ([2]; PIC 35 nM, 37° C. and 39° C., FIG. 10): decrease
effect of addition of PIC on total cell expansion ([2]; PIC 35 nM, 37° C. and 39° C., FIG. 11): decrease
